These results are taken from patent US12187752B2, “Solid forms and combination compositions comprising a beta-lactamase inhibitor and uses thereof” (priority 2017, dated 2025).

One data set concerns human serum protein. Put plainly: In vitro human serum protein binding. It counts as in vitro ADME. From the text: (§1) The results from in vitro and in vivo nonclinical PK/PD studies, the human PK data collected in the Phase 1 Study, and human plasma binding data were used to determine human therapeutic doses required for PK/PD target attainment.
Data set [1] in a line: In vitro human serum protein binding. The following applies: human. It counts as in vitro ADME.
From the text: as §1

A short description of data set [2]: Polymorph and hydrate screen: physical stability of solid forms (AAC, drying). It counts as physicochemical. As to conditions: 40° C. and 75% RH for 2 days. The protocol:
The solids obtained from the various crystallization experiments were analyzed by High Throughput XRPD (HT-XRPD). If relevant, the mother liquors were allowed to evaporate completely, and the remaining solids were analyzed by HT-XRPD. Subsequently, all solids were exposed to accelerated aging conditions for 48 hours at 40° C. and 75% RH (AAC).
From the polymorph screen, four novel diffractograms were identified in addition to the two known forms of Compound 1-dihydrochloride, Form 1 and Form 2. Form 1 was the most abundant solid form found in this polymorph screen. The novel diffractograms were designated Forms 3, 4, 5 and 6. All these forms were found with low frequency and were poorly crystalline. […] The HT-XRPD patterns of the new Forms 3, 4, 5 and 6 are shown in FIG. 12, FIG. 13, FIG. 14, and FIG. 15, respectively.
After completion of the equilibration time, the remaining solids were analyzed by HT-XRPD dry under ambient conditions and dried under vacuum. The mother liquors were analyzed by Karl Fisher titration for water content determination. […] The solutions from these experiments were evaporated under vacuum (200 mBar) and the obtained dried solids analyzed by HT-XRPD. All the solids were then exposed to 40° C. and 75% RH for two days.

Data set [3] in a line: Human pharmacokinetic and PK/PD target attainment estimates. Type of data set: in vivo.
From the text: as §1

Data set [4] is described as follows: Stability of aqueous solutions of combination formulation at pH 5.0. As to conditions: pH 5.0 at 25° C., 24 hours. It counts as physicochemical.
The nature of data set [5]: Dynamic vapor sorption analysis. It counts as physicochemical. The following applies: 25° C. The protocol: Differences in hygroscopicity (moisture uptake) of the various forms of a solid material provided a measure of their relative stability at increasing relative humidity. Moisture sorption isotherms of small samples were obtained using a DVS-1 system from Surface Measurement Systems (London, UK); this instrument is suitable for use with as little as a few milligrams of sample, with an accuracy of 0.1 μg. The following humidity profile was applied: The relative humidity was cycled from 45% to 95% (sorption), back to 0% (desorption) and to 45%, at a constant temperature of 25° C. […] Weight equilibration per step was set with a minimum holding time of 1 hour. At the end of the DVS experiments, the recovered solid material was measured by HT-XRPD. Compound 1-dihydrochloride monohydrate was analyzed by dynamic vapor sorption (FIG. 6). The material was subjected to an isothermal desorption/sorption profile starting at 45%-95%-0%-45% relative humidity levels (step 5% at low relative humidity (RH)) at 25° C. The temperature was maintained constant at approximately 25° C. for the duration of the experiment. […] It can be seen that the mass uptake is rather small and that at high humidity level Compound 1-dihydrochloride remained as Form 1. This is confirmed by the mass stability and the VH-XRPD experiment conducted (see FIG. 7). […]

Data set [6] can be described thus: Aqueous solubility as a function of pH (phosphate buffers, HPLC-UV). It counts as physicochemical. The following applies: aqueous buffer, thermodynamic from solid; for solubility at 4 h: read-out: Conc. (mg/ml) 4 hours; for solubility thermodynamic at 24 h: read-out: Conc. (mg/ml) 24 hours. As to the method: A known amount of Compound 1 was weighed directly into 5 ml vials and 1 ml of each phosphate buffer was added; the solutions obtained were kept at controlled temperature (25° C.) and magnetically stirred up to 24 hours. Aliquots of obtained suspensions or solutions were centrifuged (14000 rpm 10 minutes) and withdrawn at two predefined time points (4 hours and 24 hours) appropriately diluted and analyzed by HPLC-UV using the analytical method parameters summarized in the Table 9.

A short description of data set [7]: Physical stability of Compound 1-dihydrochloride at four temperature/RH conditions. As to conditions: four temperature/RH conditions, 4 weeks. It counts as physicochemical. The protocol:
A physical stability study of Compound 1-dihydrochloride (mixture of Form 1 and Form 2) was conducted. A solid sample of Compound 1-dihydrochloride was incubated under four relative humidity and temperature conditions: 5° C./ambient RH, 25° C./60% RH, 30° C./65% RH and 40° C./75% RH. At regular intervals, the compound was analyzed by HR-XRPD and TGMS. […] The water content is in line with the monohydrate nature of Compound 1-dihydrochloride Form 1. The TGMS analyses recorded for the 2 weeks and 1-month incubation is also along the 3.8% of water (1 molecule of water per molecule of API).

The next data set is described as follows: DSC analysis of Form 1. As to conditions: DSC trace. Type of data set: physicochemical. The protocol:
Melting properties were obtained from DSC thermograms, recorded with a heat flux DSC822e instrument (Mettler-Toledo GmbH, Switzerland). The DSC822e was calibrated for temperature and enthalpy with a small piece of indium (melting point at 156.6 C; ΔHf=28.45 J·g−1). Samples were sealed in standard 40 μl aluminum pans, pin-holed and heated in the DSC from 25° C. to 300° C., at a heating rate of 10° C. min-1. Dry N2 gas, at a flow rate of 50 ml min−1 was used to purge the DSC equipment during measurement.
This event corresponds to the onset of dehydration of the monohydrate. This dehydration process is followed by the decomposition of the compound at about 290° C. signaled by a large endothermic event. It is concluded from this experiment that Form 1 is stable to elevated temperature, up to approximately 50° C.

Data set [8] can be described thus: Variable humidity XRPD analysis. It counts as physicochemical. As to conditions: VH-XRPD, sorption; dihydrochloride. The protocol:
To confirm the hypothesis of a solid form change between 40% and 0% relative humidity levels a variable humidity XRPD (VH-XRPD) analysis was performed. The sample was subjected to a humidity profile of 45-75-20-15-10-30-35-45% relative humidity levels at 30° C. At each step, two diffractograms were recorded. The first diffractogram was recorded when the target humidity was reached and the second after the sample had equilibrated for 1 hour at each humidity level. […] The most intense peaks of Form 1 (dihydrochloride monohydrate) are in the range between 9.5 and 24.5° 2θ.
The measured RH level and the kind of ongoing RH variation step (sorption or desorption) is found on the right hand side. […] Upon desorption, the material was converted between 20% and 15% relative humidity to Form 2, the anhydrous form. Upon sorption, Form 2 converted back to Form 1 between 30% and 35% relative humidity.

Read-outs that look alike come from different tables or passages of the source. A value given as a limit tells only on which side of the number the result lay.

Regarding `NCCN[C@H]1CC[C@H](CC(=O)N[C@H]2Cc3cccc(C(=O)O)c3OB2O)CC1` [Compound 1, (R)-3-(2-(trans-4-(2-aminoethylamino)cyclohexyl)acetamido)-2-hydroxy-3,4-dihydro-2H-benzo[e][1,2]oxaborinine-8-carboxylic acid], in the data set with human serum protein, the free fraction came out at 63%. In addition, the unbound share (fraction unbound) (in general, the share of the substance not bound to proteins or other matrix) in [1] was 0.63. In data set [2], the “Physical stability upon exposure to AAC” value is on record as “Stable”. The “Total AUC0-24” value in data set [3] (Dose Level 250 (q8 hr)) is 123 µg·h/mL; in data set [3] (Dose Level 500 (q8 hr)), 248 µg·h/mL. Also, the fAUC0-24 in data set [3] (Dose Level 250 (q8 hr)) was 77 µg·h/mL; in data set [3] (Dose Level 500 (q8 hr)) it was 156 µg·h/mL. Moreover, in data set [4], the “% present, Compound 1” value worked out at 100%.

`Cl.Cl.NCCN[C@H]1CC[C@H](CC(=O)N[C@H]2Cc3cccc(C(=O)O)c3OB2O)CC1` [Form 1, (R)-3-(2-(trans-4-(2-aminoethylamino)cyclohexyl)acetamido)-2-hydroxy-3,4-dihydro-2H-benzo[e][1,2]oxaborinine-8-carboxylic acid dihydrochloride]: in data set [5] (DVS sorption 45% RH to 95%), the “Mass uptake on exposure to increasing relative humidity” value is “rather small”. In data set [5] (DVS, exposure to 10, 5, and 0% RH, transformation to Form 2), the “Mass loss on desorption” value is reported as “approximately 4%”. Besides, the solubility at 4 h in data set [6] (Phosphate Buffer pH 4, pH (4 h) 3.9, 25° C.) was above 143 mg/mL; in [6] (Phosphate Buffer pH 5, pH (4 h) 4.9, 25° C.), above 135 mg/mL; in data set [6] (Phosphate Buffer pH 6, pH (4 h) 6.2, 25° C.), above 135 mg/mL; in [6] (Phosphate Buffer pH 7, pH (4 h) 7.1, 25° C.) it was above 133 mg/mL; in [6] (Phosphate Buffer pH 8, pH (4 h) 8.1, 25° C.) it was above 127 mg/mL; in data set [6] (Phosphate Buffer pH 9, pH (4 h) 8.7, 25° C.), above 109 mg/mL. Further, the solubility thermodynamic at 24 h was found to be 133 mg/mL in data set [6] (Phosphate Buffer pH 4, pH (24 h) 3.9, 25° C.); 107 mg/mL in data set [6] (Phosphate Buffer pH 5, pH (24 h) 4.9, 25° C.); 102 mg/mL in data set [6] (Phosphate Buffer pH 6, pH (24 h) 6.2, 25° C.); 87.8 mg/mL in [6] (Phosphate Buffer pH 7, pH (24 h) 7.0, 25° C.); 68.3 mg/mL in data set [6] (Phosphate Buffer pH 8, pH (24 h) 8.1, 25° C.); 61.4 mg/mL in [6] (Phosphate Buffer pH 9, pH (24 h) 8.9, 25° C.). Besides, the “Physical stability and hygroscopicity under the tested conditions” value in data set [7] was “physically stable and non-hygroscopic”. For the same molecule, in “DSC analysis of Form 1”, the “Temperature up to which the form is stable (onset of dehydration)” value is “approximately 50 °C”.

With `Cl.Cl.NCCN[C@H]1CC[C@H](CC(=O)N[C@H]2Cc3cccc(C(=O)O)c3OB2O)CC1` [Form 2, (R)-3-(2-(trans-4-(2-aminoethylamino)cyclohexyl)acetamido)-2-hydroxy-3,4-dihydro-2H-benzo[e][1,2]oxaborinine-8-carboxylic acid dihydrochloride], in data set [8], the “Relative humidity at which Form 2 converts to Form 1” value is given as 25-35 % RH.
